Results as given in ChEMBL document CHEMBL3627709, “Discovery of a Novel, Potent Spirocyclic Series of γ-Secretase Inhibitors” (J Med Chem, 2015).
Activity calls are given as the source filed them. No cut-off for these calls is given here.

Tests used:
[1] = target: T1, Cytochrome P450 2D6 (Homo sapiens, UniProt P10635); assay: Inhibition of CYP2D6 (unknown origin) preincubated with protein for 30 mins followed by substrate addition; type: ADME
[2] = target: Voltage-gated inwardly rectifying potassium channel KCNH2 (Homo sapiens, UniProt Q12809); assay: Inhibition of human ERG
[3] = target: T2, Cytochrome P450 3A4 (Homo sapiens, UniProt P08684); assay: Inhibition of CYP3A4 (unknown origin) co-incubated with substrate and protein; type: ADME
[4] = target: Gamma-secretase; assay: Inhibition of gamma-secretase in HEK293 cells using human APP Swedish/London double mutant as substrate assessed as formation of amyloid beta 40 after 5 to 6 hrs by sandwich immunoassay; type: cell-based
[5] = system: Rattus norvegicus; assay: Antialzheimer activity in Sprague-Dawley rat assessed as reduction of total amylod beta level in plasma at 10 mg/kg, po after 3 hrs by immunoassay relative to vehicle-treated control; type: functional; design: scale not given: the % may be the effect or the level left
[6] = target: Gamma-secretase; assay: Inhibition of gamma-secretase in HEK293 cell membranes using SPC99-Lon as substrate assessed as formation of amyloid beta 40 after 1 hr by electrochemiluminescence-based immunoassay; design: species or system Homo sapiens
[7] = target: T2, Cytochrome P450 3A4; assay: Inhibition of CYP3A4 (unknown origin) preincubated with protein for 30 mins followed by substrate addition; type: ADME
[8] = target: Gamma-secretase; assay: Inhibition of gamma-secretase in HEK293 cells using human APP Swedish/London double mutant as substrate assessed as formation of amyloid beta 42 after 5 to 6 hrs by sandwich immunoassay; type: cell-based
[9] = system: Rattus norvegicus; assay: Antialzheimer activity in Sprague-Dawley rat assessed as reduction of total amylod beta level in cerebrospinal fluid at 10 mg/kg, po after 3 hrs by immunoassay relative to vehicle-treated control; type: functional; design: scale not given: the % may be the effect or the level left
[10] = target: T3, Cytochrome P450 2C9 (Homo sapiens, UniProt P11712); assay: Inhibition of CYP2C9 (unknown origin) preincubated with protein for 30 mins followed by substrate addition; type: ADME
[11] = target: T1, Cytochrome P450 2D6; assay: Inhibition of CYP2D6 (unknown origin) co-incubated with substrate and protein; type: ADME
[12] = target: T3, Cytochrome P450 2C9; assay: Inhibition of CYP2C9 (unknown origin) co-incubated with substrate and protein; type: ADME
[13] = system: Rattus norvegicus; assay: (§1) AUC (0 to 6 hrs) in Sprague-Dawley rat at 10 mg/kg, po by LC-MS/MS analysis; type: ADME, organism-based; design: time < 6 hr, dose 10 mg/kg, route oral; conditions: in vivo, 6 h, BLD = below limit of detection
[14] = organism: Homo sapiens; assay: Selectivity ratio of IC50 for human presenilin-2 to IC50 for human presenilin-1
[15] = system: Rattus norvegicus; assay: Antialzheimer activity in Sprague-Dawley rat assessed as reduction of total amylod beta level at 10 mg/kg, po after 3 hrs by immunoassay relative to vehicle-treated control; type: functional, organism-based
[16] = as §1; type: ADME, organism-based; design: time < 6 hr, dose 10 mg/kg, route oral; conditions: Sprague-Dawley, in vivo
[17] = Ratio of drug level in brain to plasma in Sprague-Dawley rat at 10 mg/kg, po; type: ADME, organism-based; conditions: brain and plasma, read-out: BPR

T3 sequence (P11712 whole entry): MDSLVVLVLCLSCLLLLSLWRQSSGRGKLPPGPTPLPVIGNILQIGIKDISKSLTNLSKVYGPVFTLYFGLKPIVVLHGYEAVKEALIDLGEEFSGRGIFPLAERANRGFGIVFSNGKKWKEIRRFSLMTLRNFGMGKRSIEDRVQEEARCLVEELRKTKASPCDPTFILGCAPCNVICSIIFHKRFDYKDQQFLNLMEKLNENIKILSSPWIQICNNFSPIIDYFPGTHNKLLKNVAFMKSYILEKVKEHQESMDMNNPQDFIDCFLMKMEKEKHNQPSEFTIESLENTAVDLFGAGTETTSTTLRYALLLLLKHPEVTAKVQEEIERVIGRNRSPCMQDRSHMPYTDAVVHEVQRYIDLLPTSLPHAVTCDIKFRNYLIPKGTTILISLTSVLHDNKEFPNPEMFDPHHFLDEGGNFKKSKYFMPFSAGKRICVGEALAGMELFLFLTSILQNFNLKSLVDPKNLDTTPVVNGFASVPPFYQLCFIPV
T2 sequence (P08684 whole entry): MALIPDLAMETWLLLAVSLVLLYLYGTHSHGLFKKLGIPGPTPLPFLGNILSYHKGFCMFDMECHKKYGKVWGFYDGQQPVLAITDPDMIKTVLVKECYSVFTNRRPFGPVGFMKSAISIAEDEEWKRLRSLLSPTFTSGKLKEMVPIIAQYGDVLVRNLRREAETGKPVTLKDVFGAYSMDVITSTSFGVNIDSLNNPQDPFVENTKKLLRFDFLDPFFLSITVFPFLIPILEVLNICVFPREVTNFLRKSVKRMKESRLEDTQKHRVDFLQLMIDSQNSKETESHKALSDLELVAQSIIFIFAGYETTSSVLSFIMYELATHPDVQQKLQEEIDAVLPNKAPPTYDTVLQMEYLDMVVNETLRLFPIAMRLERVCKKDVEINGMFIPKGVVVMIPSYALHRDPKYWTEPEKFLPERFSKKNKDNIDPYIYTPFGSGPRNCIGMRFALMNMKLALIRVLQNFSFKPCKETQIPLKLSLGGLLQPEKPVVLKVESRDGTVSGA
Voltage-gated inwardly rectifying potassium channel KCNH2, sequence (Q12809 whole entry): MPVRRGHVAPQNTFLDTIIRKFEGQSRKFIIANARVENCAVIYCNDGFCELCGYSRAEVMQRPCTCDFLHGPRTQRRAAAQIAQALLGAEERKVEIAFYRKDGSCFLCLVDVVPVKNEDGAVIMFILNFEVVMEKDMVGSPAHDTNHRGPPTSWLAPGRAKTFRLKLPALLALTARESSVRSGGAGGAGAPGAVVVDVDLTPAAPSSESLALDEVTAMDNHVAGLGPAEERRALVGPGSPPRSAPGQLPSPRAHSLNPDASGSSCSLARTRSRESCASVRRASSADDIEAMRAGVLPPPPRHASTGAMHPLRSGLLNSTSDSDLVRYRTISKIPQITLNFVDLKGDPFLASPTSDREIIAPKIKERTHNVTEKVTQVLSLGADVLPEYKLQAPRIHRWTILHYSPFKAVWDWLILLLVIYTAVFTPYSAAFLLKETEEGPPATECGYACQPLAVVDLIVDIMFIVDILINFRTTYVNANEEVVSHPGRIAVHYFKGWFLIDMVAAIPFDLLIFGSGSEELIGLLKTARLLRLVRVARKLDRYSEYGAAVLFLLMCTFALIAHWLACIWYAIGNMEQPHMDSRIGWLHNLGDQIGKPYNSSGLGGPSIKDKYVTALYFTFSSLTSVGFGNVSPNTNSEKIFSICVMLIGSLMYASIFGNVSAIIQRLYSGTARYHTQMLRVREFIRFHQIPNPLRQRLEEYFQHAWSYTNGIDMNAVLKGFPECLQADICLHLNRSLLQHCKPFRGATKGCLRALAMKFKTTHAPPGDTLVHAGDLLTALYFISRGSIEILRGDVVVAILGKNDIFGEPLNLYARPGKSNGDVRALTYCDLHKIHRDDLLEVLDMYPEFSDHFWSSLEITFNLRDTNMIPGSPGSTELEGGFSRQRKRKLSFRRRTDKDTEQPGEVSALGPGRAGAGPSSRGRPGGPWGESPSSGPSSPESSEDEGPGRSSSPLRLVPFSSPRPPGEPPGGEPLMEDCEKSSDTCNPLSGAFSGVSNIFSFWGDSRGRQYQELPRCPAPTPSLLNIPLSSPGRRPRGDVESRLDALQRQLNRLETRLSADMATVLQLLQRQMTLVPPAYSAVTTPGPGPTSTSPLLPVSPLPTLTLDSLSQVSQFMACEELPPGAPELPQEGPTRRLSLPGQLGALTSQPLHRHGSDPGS
T1 sequence (P10635 whole entry): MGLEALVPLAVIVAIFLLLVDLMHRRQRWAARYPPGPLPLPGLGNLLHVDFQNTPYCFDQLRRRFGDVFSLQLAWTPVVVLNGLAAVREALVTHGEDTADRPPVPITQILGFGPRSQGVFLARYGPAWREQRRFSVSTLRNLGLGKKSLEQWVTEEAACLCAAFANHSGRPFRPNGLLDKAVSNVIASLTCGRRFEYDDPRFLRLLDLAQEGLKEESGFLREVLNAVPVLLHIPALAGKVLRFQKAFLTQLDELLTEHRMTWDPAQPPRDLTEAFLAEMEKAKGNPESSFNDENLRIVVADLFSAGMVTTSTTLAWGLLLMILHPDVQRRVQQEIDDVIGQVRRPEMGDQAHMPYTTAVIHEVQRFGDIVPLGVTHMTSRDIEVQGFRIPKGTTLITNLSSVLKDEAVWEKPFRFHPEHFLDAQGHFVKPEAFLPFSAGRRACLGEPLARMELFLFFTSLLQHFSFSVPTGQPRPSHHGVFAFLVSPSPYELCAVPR

With `O=S(=O)(c1ccc(Cl)cc1)[C@@]12CCC[C@]3(CCOC3)[C@@H]1COc1c(F)ccc(F)c12` (stereo in doubt; (-)-14b) the IC50 [1] was over 20000 nM, the “inhibition (INH)” value [2] was “Not Active” and the IC50 [3] was over 20000 nM. The IC50 [4] was 6 nM, the Activity [5] was 29% and the IC50 [6] was 13.9 nM. It also gave an IC50 [7] of over 20000 nM, an IC50 [8] of 3 nM and an Activity [9] of 10%. For the same compound, the IC50 [10] was over 20000 nM, the IC50 [11] was over 20000 nM and the IC50 [12] was over 20000 nM.

With `O=S(=O)(N1CC[C@]2(CCC[C@@]3(S(=O)(=O)c4ccc(Cl)cc4)c4c(F)ccc(F)c4OC[C@@H]23)C1)C(F)(F)F` the IC50 [1] was over 30000 nM, the “inhibition (INH)” value [2] was “Not Active” and the IC50 [3] was over 30000 nM. For the same compound, the IC50 [4] was 13 nM, the IC50 [6] was 23.3 nM and the IC50 [7] was over 20000 nM. It also gave an IC50 [8] of 8 nM, an IC50 [10] of over 30000 nM and an IC50 [11] of over 30000 nM. For the same compound, the IC50 [12] was over 30000 nM.

For `O=S(=O)(c1ccc(Cl)cc1)C1(c2cc(F)ccc2F)CCCCC1`, the IC50 [4] was 41 nM, the IC50 [6] was 14.1 nM and the AUC [13] was “BLD”. The Ratio IC50 [14] was 1, the IC50 [8] was 27 nM and the Activity [15] was “inactive”.

With `O=S(=O)(c1ccc(Cl)cc1)[C@@]12CCCC3(COC3)[C@@H]1COc1c(F)ccc(F)c12` the “inhibition (INH)” value [2] was “Not Active”, the IC50 [4] was 13 nM and the IC50 [6] was 10.1 nM. The AUC [13] was “BLD” and the IC50 [8] was 7 nM.

In the case of `O=S(=O)(c1ccc(Cl)cc1)[C@@]12CCCC(CO)(CO)[C@@H]1COc1c(F)ccc(F)c12`, the IC50 [1] is reported as over 30000 nM, the “inhibition (INH)” value [2] is reported as “Not Active” and the IC50 [3] is reported as 11000 nM. It also gave an IC50 [6] of 251 nM, an IC50 [7] of 11500 nM and an IC50 [10] of 21100 nM. The IC50 [11] was over 30000 nM and the IC50 [12] was 23400 nM.

With `CC1(C)OCC2(CCC[C@@]3(S(=O)(=O)c4ccc(Cl)cc4)c4c(F)ccc(F)c4OC[C@@H]23)CO1` the “inhibition (INH)” value [2] was “Not Active”, the IC50 [4] was 33 nM and the IC50 [6] was 66.6 nM. For the same compound, the IC50 [8] was 12 nM.

With `O=S(=O)(c1ccc(Cl)cc1)[C@@]12CCC[C@]3(CCOC3)[C@@H]1COc1c(F)ccc(F)c12` (stereo in doubt; (+)-14b) the IC50 [4] was 104 nM, the IC50 [6] was 142 nM and the IC50 [8] was 63 nM.

For `O=S(=O)(NC[C@@H]1OCC[C@@]2(S(=O)(=O)c3ccc(Cl)cc3)c3c(F)ccc(F)c3OC[C@@H]12)C(F)(F)F`, the IC50 [1] was 30000 nM, the IC50 [3] was over 30000 nM and the IC50 [7] was 21400 nM. For the same compound, the IC50 [10] was 4900 nM, the IC50 [11] was 17900 nM and the IC50 [12] was 2500 nM.

For `O=S1(=O)CCC2(CCC[C@@]3(S(=O)(=O)c4ccc(Cl)cc4)c4c(F)ccc(F)c4OC[C@@H]23)CC1`, the IC50 [1] was over 20000 nM, the “inhibition (INH)” value [2] was “Not Active” and the IC50 [3] was over 20000 nM. It also gave an AUC(0-t) at 6 h [16] of 3.31 µM·h, an IC50 [7] of over 20000 nM and an IC50 [10] of over 20000 nM. The IC50 [11] was over 20000 nM, the IC50 [12] was over 20000 nM and the Kp [17] was 0.2. The Activity [15] was “inactive”.

In the case of `O=S(=O)(N[C@H]1CC[C@@](c2cc(F)ccc2F)(S(=O)(=O)c2ccc(Cl)cc2)CC1)C(F)(F)F`, the IC50 [1] is reported as over 30000 nM, the Activity [5] is reported as 71% and the AUC(0-t) at 6 h [16] is reported as 2.35 µM·h. The IC50 [10] was under 300 nM, the IC50 [11] was over 30000 nM and the IC50 [12] was under 300 nM. It also gave a Kp [17] of 0.2.

For `O=C1OCC[C@]12CCC[C@@]1(S(=O)(=O)c3ccc(Cl)cc3)c3c(F)ccc(F)c3OC[C@@H]21`, the IC50 [1] was over 30000 nM, the “inhibition (INH)” value [2] was “Not Active” and the IC50 [3] was over 30000 nM. For the same compound, the IC50 [6] was 228 nM, the IC50 [7] was over 30000 nM and the IC50 [10] was over 30000 nM. It also gave an IC50 [11] of over 30000 nM and an IC50 [12] of over 30000 nM.

`O=S(=O)(N[C@@H]1CC[C@@]2(S(=O)(=O)c3ccc(Cl)cc3)c3c(F)ccc(F)c3OC[C@H]2C1)C(F)(F)F` showed an IC50 [1] of over 30000 nM, an IC50 [3] of 9600 nM and an IC50 [7] of 3500 nM. For the same compound, the IC50 [10] was under 300 nM, the IC50 [11] was over 30000 nM and the IC50 [12] was under 300 nM.

With `O=S(=O)(c1ccc(Cl)cc1)[C@@]12CCCC3(CCSCC3)[C@@H]1COc1c(F)ccc(F)c12` the “inhibition (INH)” value [2] was “Not Active”, the IC50 [4] was 17 nM and the IC50 [6] was 26.4 nM. The AUC [13] was “BLD”, the IC50 [8] was 5 nM and the Activity [15] was “inactive”.
